Source: patent US20100255580A1, “Differentiation of Human Embryonic Stem Cells” (LIFESCCAN, INC., priority 2007, published 2010)

Columns and labels:
[1] = tested on: SA002 ES line; experiment: Real-time PCR and FACS of DE markers, SA002 on […]; format: cell-based, human; settings: SA002 P38; 20 ng/ml Wnt-3a with 100 ng/ml activin A
Excerpt: Expression of CXCR4 is depicted in FIG. 45: a) AA treatment b) AA+Wnt-3a c) AA+GSK-3B inhibitor.

[2] = tested on: human embryonic stem cell line H9; experiment: Immunocytochemistry of endoderm markers, H9; format: cell-based; settings: activin A for five days
Excerpt: (§1) The level of expression of definitive endoderm markers was examined by PCR (FIG. 1), FACS (results summarized in Table II), and immunohistochemistry (FIG. 2).
(§2) Cells were harvested at the time points indicated in FIG. 3 and assayed by PCR for the expression of genes shown (FIGS. 3, 4 and 5).

[3] = tested on: human embryonic stem cell line H9; experiment: Real-time PCR of marker gene expression, H9 on MEF (Examples 2-7); format: cell-based
Description: as §2
After this time interval, the cells were then treated for six days with combinations of retinoic acid and FGF as outlined in Example 2, then the culture medium was removed and replaced with medium comprising DMEM/F12 with 2% FBS, containing the γ-secretase inhibitors L-685,458 at 10 μM for three days.
Cells were continuously cultured for another 3 to 5 days in basal medium with retinoic acid at 1 μM, alone or with bFGF. RNA samples were harvested from cells at various time points along this process to help evaluate the directed differentiation of the cells. Furthermore, culture medium and factors were regularly removed and replenished throughout the differentiation protocol.
RNA extraction, purification, and cDNA synthesis. RNA samples were purified by binding to a silica-gel membrane (Rneasy Mini Kit, Qiagen, CA) in the presence of an ethanol-containing, high-salt buffer followed by washing to remove contaminants. The RNA was further purified using a TURBO DNA-free kit (Ambion, INC), and high-quality RNA was then eluted in water. Yield and purity were assessed by A260 and A280 readings on a spectrophotometer. cDNA copies were made from purified RNA using an ABI (ABI, CA) high capacity cDNA archive kit.
Real-time PCR amplification and quantitative analysis.
Final data were expressed relative to a calibrator sample.

[4] = tested on: human embryonic stem cell line H1; experiment: FACS analysis of protein expression following activin A treatment, H1; format: cell-based; settings: 5-day AA treatment
Excerpt: as §1
CXCR4 positive cells were also highly positive for C-kit, EPCAM, CD99, and negative for CD9. The expression pattern for these markers was consistent among all three hES cell lines examined (Table IIB for H7 and Table IIC for H1). […] In parallel, almost 100% of the differentiated cells were […] (FIG. 2).
(§3) Adhered cells were removed from culture plates by five-minute incubation with TrypLE™ Express solution (Invitrogen, CA). Released cells were resuspended in human embryonic stem cell culture medium and recovered by centrifugation, followed by washing and resuspending the cells in a staining buffer consisting of 2% BSA, 0.05% sodium azide in PBS (Sigma, MO). As appropriate, the cells were Fc-receptor blocked for 15 minutes using a 0.1% γ-globulin (Sigma) solution. […] Controls included appropriate isotype matched antibodies, unstained cells, and cells stained only with secondary conjugated antibody. All incubations with antibodies were performed for 30 mins at 4° C. after which the cells were washed with the staining buffer. Samples that were stained with unconjugated primary antibodies were incubated for an additional 30 mins at 4° C. with secondary conjugated PE or -APC labeled antibodies. See Table I for a list of secondary antibodies used. Washed cells were pelleted and resuspended in the staining buffer, and the cell surface molecules were identified using a FACS Array (BD Biosciences) instrument, collecting at least 10,000 events.

[5] = tested on: human embryonic stem cell line H9; experiment: FACS analysis of protein expression following activin A treatment, H9 on MEF; format: cell-based; settings: for CD9 protein expression (FACS) / CXCR4 protein expression (FACS) / ECAM protein expression (FACS) / NCAM protein expression (FACS) / SSEA-3 protein expression (FACS): activin A 100 ng/ml
Description: as §1, §3

Wnt-3a
expression of DE markers [1]: robust expression

Activin A: a member of the TGFβ superfamily; R&D Systems; Group 2 = Activin A (100 ng/ml)
cells positive for Sox17 and HNF-3beta (immunocytochemistry) [2]: 30-40%
differentiated cells still Oct4 positive (immunocytochemistry) [2]: ~100%
increase of Nkx2.2 expression compared to samples without activin A ([3]; 50 ng/ml activin A with 50 ng/ml basic FGF and 1 μM Retinoic Acid): about 35 fold
Pdx1 gene expression ([3]; Activin A 100 ng/ml up to seven days, 0% to 2% serum): no Pdx1 gene expression was observed
expression of Brachyury ([3]; H9, activin A 100 ng/ml): decreased
expression of the neuronal marker Zic1 ([3]; H9, activin A 100 ng/ml): no effect
expression of the extraembryonic endoderm markers Sox7 and AFP ([3]; H9, activin A 100 ng/ml, one to seven days): time-dependent decrease
anterior endoderm markers, Cerberus, Otx-1 and Hex genes ([3]; H9, activin A 100 ng/ml, three and five days): significant up regulation
expression of CXCR4, GATA4, HNF-3beta, Mix11 and Sox-17 mRNA ([3]; H9 line, activin A 100 ng/ml, two, five and eight days): time-dependent increase
expression of Ngn3 or Insulin ([3]; activin A alone or in combination with retinoic acid and FGFs): did not induce
expression of Pdx1 ([3]; activin A or retinoic acid alone): did not induce
CXCR4+ [4]: 92.78%
CXCR4+/C-kit+ [4]: 92.90%
CXCR4+/CD9+ [4]: 7.03%
CXCR4+/CD99+ [4]: 88.78%
CXCR4+/EPCAM [4]: 87.99%
CD9 protein expression (FACS) ([5]; 2-DAY): 29.42%
CXCR4 protein expression (FACS) ([5]; 2-DAY): 20.2%
ECAM protein expression (FACS) ([5]; 2-DAY): 20.87%
NCAM protein expression (FACS) ([5]; 2-DAY): 5.04%
SSEA-3 protein expression (FACS) ([5]; 2-DAY): 92.14%
CD9 protein expression (FACS) ([5]; 5-DAY): 7.27%
CXCR4 protein expression (FACS) ([5]; 5-DAY): 55.26%
ECAM protein expression (FACS) ([5]; 5-DAY): 14.17%
NCAM protein expression (FACS) ([5]; 5-DAY): 21.1%
SSEA-3 protein expression (FACS) ([5]; 5-DAY): 42.9%
CD9 protein expression (FACS) ([5]; 8-DAY): 4.1%
CXCR4 protein expression (FACS) ([5]; 8-DAY): 56.92%
ECAM protein expression (FACS) ([5]; 8-DAY): 1.02%
NCAM protein expression (FACS) ([5]; 8-DAY): 8.86%
SSEA-3 protein expression (FACS) ([5]; 8-DAY): 22.05%
expression of E-cadherin and N-cadherin (FACS) ([5]; following activin A treatment): did not change
